Results published in EP4574175A1, “PRODRUG FOR ANTI-AGING RELATED DISEASES AND USE METHOD THEREFOR” (BEIJING SUNCELL BIO-MEDICAL CO., LTD., priority 2022, dated 2024).

Assays:
[1] = tested on: induced senescent A549 cell; experiment: In vitro compound screening, cell viability test (CCK-8); format: cell-based, human; details: for senescent cell killing activity and selectivity in vitro (screening): induced senescent A549 cell model, Figure 1A; for killing activity on the senescent cells compared with ABT-263: A549-CDDP, Figure 1B
[2] = Daily observation of mice during multiple administration; format: in vivo, C57 mice; details: after 3 consecutive rounds of administration
Description: (§1) A single administration of A13 or A13bG was performed. Female 5-6 week old C57 mice were treated with a single intraperitoneal injection. A13 and A13bG were administered in three different dose groups of 2, 5, and 20 mg/kg. Approximately 50 µl of blood was collected from each mouse at different time points into the EDTA tubes (RAM Scientific) by means of inner canthal blood extraction, and analyzed using a haematology analyzer for a blood routine examination and a platelet counting. Multiple administrations of A13 or A13bG were performed. Female 5-6 week old C57 mice were treated with multiple intraperitoneal injections. A13 and A13bG were administered in three different dose groups of 2, 5 and 20 mg/kg, three consecutive days per week, followed by a 4-day withdrawal for 3 weeks. The time points of administration were in the afternoon of days 0, 1, 2, 7, 8, 9, 14, 15, and 16, and the time points of blood collection and testing were in the morning of days 1, 3, 5, 8, 10, 12, 15, 17, and 19, respectively.

[3] = tested on: mouse model of Bleomycin-induced pulmonary fibrosis; experiment: Bleomycin-induced pulmonary fibrosis mouse model; format: in vivo, C57 mice; details: A13 2 mg/kg
Description: (§2) All drugs were mixed in 85% physiological saline, 5% DMSO (Sigma, D8418) and 10% Solutol HS 15 (Sigma, 42966), and administered to mice by intraperitoneal (i.p.) injection. To treat the bleomycin-injured young mice, A13 (2 mg/kg), A13bGa1 (5 mg/kg), or an empty vehicle control was administered three consecutive days per week for four weeks. A1331852 (abbreviated as A13) was purchased from MCE.
Bleomycin was purchased from Selleck. […]. Drug treatment was initiated four days after modelling, and the drug was administered three consecutive days per week for four consecutive weeks, after which the mice were executed for material collection.
All animals (including those found dead, dying, and euthanised) were autopsied, and the lung tissues were preserved. The lungs were separated, the fat and other tissues were removed, the surface fluid was absorbed using a filter paper, and the whole lungs were weighed (those found dead, dying, and euthanised) for calculation of the lung weight index. The right lung and bronchiole were fixed in 10% neutral buffered formalin solution, embedded in paraffin, sectioned, prepared into slices, and stained with HE for a histopathological and morphological observation of the lung. The degree of the lesions such as the inflammatory cell infiltration in the lung tissue were graded according to a 4-grade classification (slight, mild, moderate, severe) using a standard terminology for diagnosis and classification. The left lung tissue was clipped and stored temporarily below -60°C. Lung weight index(%) = lung weight/body weight × 100%. [formula]
Masson trichrome stain kit (Solarbio, G1340) was used to detect fibrosis in the lung tissue. The formalin-fixed, and paraffin-embedded lung sections were dewaxed with xylene, and then rehydrated with 100% alcohol, 95% alcohol and distilled water. The sections were then stained according to the manufacturer's instructions. Afterwards, the sections were rapidly dehydrated with 95% alcohol and 100% alcohol, cleaned with xylene and covered with the coverslips. […]

[4] = tested on: platelets; experiment: In vivo platelet toxicity test; set-up: species or system C57 mice; details: multiple rounds i.p.
Description: as §2, §1
For a blood routine examination, 50 µl of fresh blood was collected from each mouse and immediately mixed with EDTA. Blood samples were analyzed by Celltac Alpha MEK-6400 series haematology analyzer (Nihon Kohden, MEK-6400). Data were expressed as the number of different blood cells or platelets per µl of blood. For the serum biochemical analysis, the blood samples were collected, coagulated for 2 hours at room temperature or overnight at 4°C, and then centrifuged (1000 g, 10 minutes) to obtain serum. A 200 µl of serum was aliquoted and analyzed for alanine aminotransferase (ALT), aspartate aminotransferase (AST), uric acid (UA), and creatinine (CREA) by a chemistry analyzer (Mindray, BS-350E).

[5] = tested on: induced senescent HEF cell; experiment: In vitro compound screening, cell viability test (CCK-8); format: cell-based, human; details: HEF-ETO, Figure 1C
Description: Briefly, the human embryonic skin tissues and the fetal lung tissues obtained from the aborted tissues with the patient's informed consent were minced with the forcep and incubated in 1 mg/ml collagenase IV at 37°C for 1-2 hours. After the enzyme treatment, the cells were collected by centrifugation and resuspended in HEF medium (Dulbecco's modified Eagle medium (DMEM, Gibco) containing 10% fetal bovine serum (FBS, Ausbian), 1% GlutaMAX (Gibco), 1% non-essential amino acids (NEAA, Gibco) and 1% penicillin/streptomycin (Gibco). Gibco). Cells were plated on the 10 cm tissue culture dishes and grown in 10% FBS DMEM. […] They were passaged and cryopreserved according to Lonza's method. A549 cells, BJ cells and MRC5 cells were purchased from ATCC and cultured in DMEM medium containing 10% fetal bovine serum (FBS, Ausbian), and 1% penicillin/streptomycin (Gibco).
Cell Counting Kit-8 (CCK-8) assay was used to assess the cell viability. The senescent and non-senescent cells or chondrocytes were seeded into the 96-well plates and cultured overnight. The cells were then treated with control (0.05% DMSO) or different concentrations of the drug to be tested. […] Absorbance was measured at the wavelength of 450 nm.

[6] = tested on: non-senescent A549 cells; experiment: Cell killing activity assay (CCK-8), Example 7; format: cell-based, human; details: 25 µM
Description: (§3) Preparation of the cell plates: The non-senescent, and the induced senescent HEF cells and A549 cells were taken respectively, digested with trypsin, and centrifuged at 1000 rmp for 5 minutes. The supernatants were removed, and the cells were resuspended in fresh DMEM medium containing 10% foetal bovine serum for counting. The cell density was adjusted so that the density of the non-senescent cells was at 4000 cells/100 µL and the density of the senescent cells was at 7000 cells/100 µL. The cell suspension was added to the 96-well transparent cell culture plates at 100 µL per well. Note that the edge wells of the 96-well plate were not used for the test wells, and 300 µL PBS is added separately to reduce the medium evaporation. The cell-spread 96-well plates were put back into the incubator at 37°C for the overnight incubation until the cells adhered to the wall.
(§4) Formulation of the drug concentration gradients: After the cells adhered to the wall on the second day, the small molecule compounds (d-12, d-11, and d-4) to be tested for activity are ready to be added. […] 3 parallel replicate wells were set up for each test drug concentration. The 96-well plate was put back into the incubator at 37°C, and the cell survival was tested after three days.
(§5) Detection of the cell survival after the drug treatment using the CCK-8 method: Three days after the addition of the drug, the well plate was removed, the supernatant was discarded, and 100 µL of the pre-prepared CCK-8 working solution was added to each well. The CCK-8 working solution was obtained by diluting the CCK8 stock solution (C0041, Beyotime) with the serum-free DMEM medium in 10-fold volume. The 96-well plate added with the CCK-8 working solution was put back to the incubator at 37°C and incubated for 0.5-2 hours. The plate was taken out to determine the absorbance value (OD value) of each well at the wavelength of 450 nm. The cell viability in each experimental group was calculated. The following formula was used: the relative cell viability (%) = […] x 100 %.

[7] = tested on: senescent A549 cells; experiment: Cell killing activity assay (CCK-8), Example 7; format: cell-based, human; details: three days; for selective killing of the senescent cells: A549-induced senescence cell model, up to 25 µM
Description: as §3, §4, §5

[8] = tested on: senescent HEF cells; experiment: Cell killing activity assay (CCK-8), Example 7; format: cell-based, human; details: HEF-induced senescence cell model, up to 25 µM, three days
Description: as §3, §4, §5

[9] = tested on: non-senescent HEF cells; experiment: Cell killing activity assay (CCK-8), Example 7; format: cell-based, human; details: 25 µM
Description: as §3, §4, §5

[10] = lung HE, number of animals of 6, A13bGa1 5 mg/kg
[11] = number of animals of 6, A13bGa1 5 mg/kg

Structure (SMILES): Cc1sc2c(c1C)C(c1ccc(Cl)cc1)=N[C@@H](CC(=O)Nc1ccc(OCCOCCOCCOCCNc3cccc4c3C(=O)N(C3CCC(=O)NC3=O)C4=O)cc1)c1nnc(C)n1-2 (stereo partly drawn) [ARV825]
- senescent cell killing activity and selectivity in vitro (screening) [1]: better in vitro killing activity

Structure (SMILES): Cc1c(-c2ccc(N3CCc4cccc(C(=O)Nc5nc6ccccc6s5)c4C3)nc2C(=O)O)cnn1CC12CC3CC(CC(C3)C1)C2 [A13, 3-[1-(adamantan-1-ylmethyl)-5-methylpyrazol-4-yl]-6-{8-[(1,3-benzothiazol-2-yl)carbamoyl]-3,4-dihydro-1H-isoquinolin-2-yl}pyridine-2-carboxylic acid]
- killing activity on the senescent cells compared with ABT-263 [1]: higher than that of the classical small molecule inhibitor ABT-263
- senescent cell killing activity and selectivity in vitro (screening) [1]: good senescent cell killing activity and selectivity in vitro
- mice depilated, dispirited and in poor state ([2]; 5 mg/kg i.p.): 2/4
- mice depilated, dispirited and in poor state ([2]; 20 mg/kg i.p.): 2/4
- pathological manifestations of the pulmonary fibrosis (Masson staining) ([3]; A13bGa1 5 mg/kg i.p.): not improved
- lung index ([3]; A13bGa1 5 mg/kg i.p., 3 consecutive days per week for 4 weeks): no improvement
- inflammation and consolidation of the mouse lungs (pathological sections) ([3]; A13bGa1 5 mg/kg i.p., HE staining): no improvement was observed
- Bleeding, alveolar/interstitial: mild (++) [3, 10]: 2
- Bleeding, alveolar/interstitial: moderate (+++) [3, 10]: 0
- Bleeding, alveolar/interstitial: negative (-) [3, 10]: 2
- Bleeding, alveolar/interstitial: slight (+) [3, 10]: 2
- Exudative oedema, alveolar: mild (++) [3, 10]: 1
- Exudative oedema, alveolar: moderate (+++) [3, 10]: 1
- Exudative oedema, alveolar: negative (-) [3, 10]: 0
- Exudative oedema, alveolar: severe (++++) [3, 10]: 3
- Exudative oedema, alveolar: slight (+) [3, 10]: 1
- The infiltration of the inflammatory cells: mild (++) [3, 10]: 2
- The infiltration of the inflammatory cells: moderate (+++) [3, 10]: 1
- The infiltration of the inflammatory cells: negative (-) [3, 10]: 1
- The infiltration of the inflammatory cells: slight (+) [3, 10]: 2
- Thickening and consolidation of the pulmonary septum: mild (++) [3, 10]: 2
- Thickening and consolidation of the pulmonary septum: moderate (+++) [3, 10]: 1
- Thickening and consolidation of the pulmonary septum: negative (-) [3, 10]: 0
- Thickening and consolidation of the pulmonary septum: severe (++++) [3, 10]: 2
- Thickening and consolidation of the pulmonary septum: slight (+) [3, 10]: 1
- degree of fibrosis in the lungs using Masson staining: Moderately strong positive (+++) [3, 11]: 1
- degree of fibrosis in the lungs using Masson staining: extremely strong positive (++++) [3, 11]: 2
- degree of fibrosis in the lungs using Masson staining: moderately positive (++) [3, 11]: 1
- degree of fibrosis in the lungs using Masson staining: not positive (-) [3, 11]: 0
- degree of fibrosis in the lungs using Masson staining: weakly positive (+) [3, 11]: 2
- toxic effects on the platelets ([4]; 3 consecutive days per week for 3 weeks, 2 mg/kg): very serious toxic effects on the platelets
- toxic effects on the platelets ([4]; 3 consecutive days per week for 3 weeks, 2, 5 and 20 mg/kg): strong destructive effects on the platelets
- killing activity on the senescent cells compared with ABT-263 [5]: higher than that of the classical small molecule inhibitor ABT-263

Structure (SMILES): Cc1sc2c(c1C)C(c1ccc(Cl)cc1)=N[C@@H](CC(=O)NCCCCCCCCNC(=O)COc1cccc3c1C(=O)N(C1CCC(=O)NC1=O)C3=O)c1nnc(C)n1-2 (stereo partly drawn) [dBET6]
- senescent cell killing activity and selectivity in vitro (screening) [1]: better in vitro killing activity

Structure (SMILES): Cc1ncsc1-c1ccc(CNC(=O)[C@@H]2C[C@@H](O)CN2C(=O)[C@@H](NC(=O)COCCOCCOCCNC(=O)C[C@@H]2N=C(c3ccc(Cl)cc3)c3c(sc(C)c3C)-n3c(C)nnc32)C(C)(C)C)cc1 [MZ1]
- senescent cell killing activity and selectivity in vitro (screening) [1]: better in vitro killing activity

Structure (SMILES): CC(=O)OC[C@H]1O[C@@H](Oc2ccc(C(Cc3cn(CCCN4CCOCC4)nn3)OC(=O)c3nc(N4CCc5cccc(C(=O)Nc6nc7ccccc7s6)c5C4)ccc3-c3cnn(CC45CC6CC(CC(C6)C4)C5)c3C)cc2[N+](=O)[O-])[C@H](OC(C)=O)[C@@H](OC(C)=O)[C@H]1OC(C)=O (stereo partly drawn) [d-11]
- killing of the non-senescent cells at the highest concentration [6]: none of the three molecules killed the non-senescent cells
- selective killing of the senescent cells [7]: selective killing of the senescent cells
- selective killing of the senescent cells [8]: selective killing of the senescent cells
- killing of the non-senescent cells at the highest concentration [9]: none of the three molecules killed the non-senescent cells

Structure (SMILES): Cc1c(-c2ccc(N3CCc4cccc(C(=O)Nc5nc6ccccc6s5)c4C3)nc2C(=O)OC(Cc2cn(CCCN3CCOCC3)nn2)c2ccc(O[C@@H]3O[C@H](CO)[C@H](O)[C@H](O)[C@H]3O)c([N+](=O)[O-])c2)cnn1CC12CC3CC(CC(C3)C1)C2 (stereo partly drawn) [d-12]
- killing of the non-senescent cells at the highest concentration [6]: none of the three molecules killed the non-senescent cells
- selective killing of the senescent cells [7]: selective killing of the senescent cells
- IC50 ([7]; Cisplatin-induced senescent A549 cells, CCK-8): ~6.9 µM
- selective killing of the senescent cells [8]: selective killing of the senescent cells
- killing of the non-senescent cells at the highest concentration [9]: none of the three molecules killed the non-senescent cells

Structure (SMILES): CN(C)CC#Cc1ccc(OCCCc2sc(N3CCc4cccc(C(=O)Nc5nc6ccccc6s5)c4C3)nc2C(=O)O)c(F)c1 [A1155463]
- killing activity on the senescent cells compared with ABT-263 [1]: higher than that of the classical small molecule inhibitor ABT-263
- senescent cell killing activity and selectivity in vitro (screening) [1]: good senescent cell killing activity and selectivity in vitro
- killing activity on the senescent cells compared with ABT-263 [5]: higher than that of the classical small molecule inhibitor ABT-263
